Like-named read-outs stand apart in the source and are kept apart here.

Series [1] can be described thus: Aqueous solubility study. Format: physicochemical. The settings on record: thermodynamic from solid. How it is done: The aqueous solubility of compound 9 and 9a were determined according to the following procedure. Solubility data was determined at ambient conditions by equilibrating the compound with water on a shaking bed for 24 hours, followed by centrifugation and separation of the saturated solutions. The pH value of each media was measured before centrifugation, and the saturated solutions were assayed by HPLC.

The nature of series [2]: Rat IV pharmacokinetic study. In kind it is in vivo, Sprague Dawley rats. The settings on record: rat, single IV bolus 1 mg/kg of compound 9; LLOQ 2.5 ng/mL. The protocol: (§1) Sample Analysis. […] Before extraction, plasma samples were diluted using blank plasma at an appropriate dilution factor, as necessary, depending on the dose level. […] After centrifugation, the supernatant extract (10 μL) was injected onto the LC/MS/MS system. The HPLC system included a Phenomenex Synergy Kinetix C8 column, 2.6 micron, 2.0 mm diameter×75 mm long eluted with a gradient mobile phase consisting of 0.1% formic acid in water or in acetonitrile.
(§2) The analytes were detected by MS/MS with Electrospray Ionization (ESI) in the mode of multiple reaction monitoring (MRM). […] The intra-day and inter-day assay accuracy was within 20% of the nominal values. The intra- and inter-day assay variability was ≦20%.
(§3) Pharmacokinetic Data Analysis.
(§4) Key pharmacokinetic parameters such as AUCall, AUCextra, Cmax, tmax, Cl, Vss and t1/2 were determined.
(§5) Statistical Data Analysis. Descriptive statistical data of pharmacokinetic parameters were calculated, including the mean, standard deviation (SD), using Watson LIMS version 7.4 SP3 or Microsoft Excel 2000.
Male Sprague Dawley rats (n=3) were administered a single nominal IV bolus dose of 1 mg/kg of compound 9 via a jugular vein cannula. […] Animals had free access to food and water before and after dosing. Blood samples (approximately 0.25 mL each) were collected via a carotid artery catheter prior to dosing and at 5 min, 10 min, 0.25, 0.5, 1, 2, 4, 8, 12, 24 hours post dose. Each blood sample was collected into a tube that was kept on wet ice and contained potassium EDTA as the anticoagulant. Plasma was separated and stored at approximately −70° C. until analysis.
Plasma concentration vs. time data were subjected to noncompartmental pharmacokinetic (PK) analysis.

The target of series [3] is human Nav1.8 (Homo sapiens (Human), UniProt Q9Y5Y9). The experiment in a line: E-VIPR optical membrane potential assay with electrical stimulation (NaV1.8 IC50 activity). Format: cell-based. The source says: Sodium channels are voltage-dependent proteins that can be activated by inducing membrane voltage changes by applying electric fields. The electrical stimulation instrument and methods of use are described in Ion Channel Assay Methods PCT/US01/21652, herein incorporated by reference and are referred to as E-VIPR. The instrument comprises a microtiter plate handler, an optical system for exciting the coumarin dye while simultaneously recording the coumarin and oxonol emissions, a waveform generator, a current- or voltage-controlled amplifier, and a device for inserting electrodes in well. Under integrated computer control, this instrument passes user-programmed electrical stimulus protocols to cells within the wells of the microtiter plate.
24 hours before the assay on E-VIPR, HEK cells expressing human Nav1.8 were seeded in 384-well poly-lysine coated plates at 15,000-20,000 cells per well. […] Cells were grown in vented cap flasks, in 90% humidity and 5% CO2.
1) Pre-spotted compounds (in neat DMSO) into compound plates. […] Final compound plate volume was 80 μL (80-fold intermediate dilution from 1 μL DMSO spot; 160-fold final dilution after transfer to cell plate).
2) Prepared Hexyl Dye Solution.
3) Prepared cell plates. On the day of the assay, medium was aspirated and cells were washed three times with 100 μL of Bath1 Solution, maintaining 25 μL residual volume in each well.
4) Dispensed 25 μL per well of Hexyl Dye Solution into cell plates. Incubated for 20-35 minutes at room temp or ambient conditions.
5) Dispensed 80 μL per well of Bath1 into compound plates. Acid Yellow-17 (1 mM) was added and Potassium Chloride was altered from 4.5 to 20 mM depending on the NaV subtype and assay sensitivity.
6) Washed cell plates three times with 100 μL per well of Bath1, leaving 25 μL of residual volume. […] Incubated for 20-35 minutes at room temp/ambient condition.
7) Read Plate on E-VIPR. […] A pre-stimulus recording was performed for 0.5 seconds to obtain the un-stimulated intensities baseline. The stimulatory waveform was followed by 0.5 seconds of post-stimulation recording to examine the relaxation to the resting state.
Data was analyzed and reported as normalized ratios of emission intensities measured in the 460 nm and 580 nm channels. The response as a function of time was reported as the ratios obtained using the following formula: […]
The data was further reduced by calculating the initial (Ri) and final (Rf) ratios. These were the average ratio values during part or all of the pre-stimulation period, and during sample points during the stimulation period. The response to the stimulus R=Rf/Ri was then calculated and reported as a function of time.
Control responses were obtained by performing assays in the presence of a compound with the desired properties (positive control), such as tetracaine, and in the absence of pharmacological agents (negative control). Responses to the negative (N) and positive (P) controls were calculated as above.

Series [4] in a line: Rat oral pharmacokinetic study. Format: in vivo, Sprague Dawley rats. The protocol: as §1, §2, §3, §4, §5
Groups of male and female Sprague Dawley rats (n=3 per dose group) were administered single nominal oral doses of 10, 100, 400, 640, 1000 mg/kg (for males) and 30, 100, 300, 640, 1000 mg/kg (for females) of compound 9 by gavage. Compound 9 was formulated in either 30% PEG400 and 10% TPGS in water or 5% TPGS, 5% PVP-K30 in 50 mM Citrate, pH 5. Animals had free access to food and water before and after dosing. Blood samples (approximately 0.25 mL each) were collected via a carotid artery catheter prior to dosing and at 0.25, 0.5, 1, 2, 4, 8, 12, 24, 48 and 72 hours post dose. Each blood sample was collected into a tube that was kept on wet ice and contained potassium EDTA as the anticoagulant. Plasma was separated and stored at approximately −70° C. until analysis.

Series [5] can be described thus: Monkey oral pharmacokinetic study. Format: in vivo, cynomolgus monkeys. How it is done:
as §1, §2, §3, §4, §5
Male or female cynomolgus monkeys (n=3 per dose group) were administered single nominal PO doses of 10, 40, 100, 300, 500, 750 and 1000 mg/kg of compound 9 by gavage. Compound 9 was formulated in 30% PEG400 and 10% TPGS in water or 5% TPGS, 5% PVP-K30 in 50 mM Citrate, pH 5. […]

Series [6] is described as follows: Chemical and physical stability of crystalline Form B (XRPD, HPLC impurity profile, appearance). In kind it is physicochemical. The text has this:
Chemically and physically stable means no changes were observed on the X-ray powder diffraction and HPLC impurity profiles (e.g., less than 0.2% variance) and there were no observed changes in physical appearance of the samples.

Sequence of human Nav1.8 (Q9Y5Y9 whole entry): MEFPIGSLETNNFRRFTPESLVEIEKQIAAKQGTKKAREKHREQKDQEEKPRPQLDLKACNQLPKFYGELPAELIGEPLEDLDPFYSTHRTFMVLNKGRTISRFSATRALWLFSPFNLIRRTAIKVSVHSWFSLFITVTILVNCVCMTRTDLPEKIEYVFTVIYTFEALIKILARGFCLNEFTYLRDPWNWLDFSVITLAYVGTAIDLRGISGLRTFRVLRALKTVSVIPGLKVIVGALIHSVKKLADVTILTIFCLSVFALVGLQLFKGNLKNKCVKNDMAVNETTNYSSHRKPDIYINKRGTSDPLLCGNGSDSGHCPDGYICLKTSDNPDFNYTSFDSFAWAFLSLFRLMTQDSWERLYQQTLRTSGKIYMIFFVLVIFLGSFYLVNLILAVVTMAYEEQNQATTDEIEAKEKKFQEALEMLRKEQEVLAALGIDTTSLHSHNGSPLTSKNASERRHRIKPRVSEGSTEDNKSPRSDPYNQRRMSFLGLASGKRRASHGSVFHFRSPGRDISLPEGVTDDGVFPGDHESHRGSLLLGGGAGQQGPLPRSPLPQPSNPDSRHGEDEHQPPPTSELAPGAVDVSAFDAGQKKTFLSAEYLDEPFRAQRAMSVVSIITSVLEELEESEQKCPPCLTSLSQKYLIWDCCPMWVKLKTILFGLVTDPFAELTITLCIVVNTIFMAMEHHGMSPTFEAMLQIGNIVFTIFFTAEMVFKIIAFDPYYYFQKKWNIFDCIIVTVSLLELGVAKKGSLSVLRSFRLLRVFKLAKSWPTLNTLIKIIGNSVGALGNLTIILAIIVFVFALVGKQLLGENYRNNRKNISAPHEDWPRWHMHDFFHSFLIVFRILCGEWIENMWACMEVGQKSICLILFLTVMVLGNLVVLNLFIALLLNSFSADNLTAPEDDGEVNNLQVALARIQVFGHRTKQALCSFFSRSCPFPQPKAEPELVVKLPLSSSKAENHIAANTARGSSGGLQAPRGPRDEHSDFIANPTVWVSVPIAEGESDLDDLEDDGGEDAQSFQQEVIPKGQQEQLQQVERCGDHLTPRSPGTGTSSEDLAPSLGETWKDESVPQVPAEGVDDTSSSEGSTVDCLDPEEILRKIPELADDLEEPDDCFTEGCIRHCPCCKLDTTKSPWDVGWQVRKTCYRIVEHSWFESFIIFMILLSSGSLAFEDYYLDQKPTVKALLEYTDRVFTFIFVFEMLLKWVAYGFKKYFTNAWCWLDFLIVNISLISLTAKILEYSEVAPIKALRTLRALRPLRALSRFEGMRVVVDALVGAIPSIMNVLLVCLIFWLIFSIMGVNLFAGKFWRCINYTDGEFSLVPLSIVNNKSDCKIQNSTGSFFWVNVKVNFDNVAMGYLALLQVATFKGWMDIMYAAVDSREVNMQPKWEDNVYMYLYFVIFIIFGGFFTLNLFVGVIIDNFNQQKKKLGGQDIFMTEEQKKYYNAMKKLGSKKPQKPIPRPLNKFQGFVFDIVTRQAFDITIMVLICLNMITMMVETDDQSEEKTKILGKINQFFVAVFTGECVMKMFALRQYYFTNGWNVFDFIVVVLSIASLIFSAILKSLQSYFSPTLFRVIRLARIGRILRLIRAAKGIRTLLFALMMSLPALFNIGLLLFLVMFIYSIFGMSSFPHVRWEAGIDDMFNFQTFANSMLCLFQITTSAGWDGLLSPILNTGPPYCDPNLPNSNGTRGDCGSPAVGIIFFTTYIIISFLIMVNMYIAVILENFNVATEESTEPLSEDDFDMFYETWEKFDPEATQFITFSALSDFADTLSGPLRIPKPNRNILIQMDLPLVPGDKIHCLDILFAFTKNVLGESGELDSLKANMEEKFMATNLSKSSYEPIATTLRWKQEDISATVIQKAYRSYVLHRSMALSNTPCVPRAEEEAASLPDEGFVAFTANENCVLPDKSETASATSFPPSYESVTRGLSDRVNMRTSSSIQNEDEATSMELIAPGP

Regarding `Cc1cc(F)ccc1Oc1cc(C(F)(F)F)ccc1C(=O)Nc1ccn(COP(=O)(O)O)c(=O)c1` [Compound 9, (4-(2-(4-fluoro-2-methylphenoxy)-4-(trifluoromethyl)benzamido)-2-oxopyridin-1(2H)-yl)methyl dihydrogen phosphate], the solubility at 24 h in series [1] (aqueous medium, aqueous buffer, pH 3, crystalline, ambient conditions, 24 hours, read-out: Solubility) is 0.11 mg/mL; in series [1] (aqueous medium, aqueous buffer, pH 3.3, crystalline, ambient conditions, 24 hours, read-out: Solubility), 0.24 mg/mL; in series [1] (aqueous medium, aqueous buffer, pH 5, crystalline, ambient conditions, 24 hours, read-out: Solubility), 0.42 mg/mL; in series [1] (aqueous medium, aqueous buffer, pH 7, crystalline, ambient conditions, 24 hours, read-out: Solubility), 0.5 mg/mL; in series [1] (aqueous medium, aqueous buffer, pH 8, crystalline, ambient conditions, 24 hours, read-out: Solubility) it was 2.24 mg/mL; in series [1] (aqueous medium, simulated gastric fluid, pH 1, crystalline, ambient conditions, 24 hours, read-out: Solubility) it was 0.002 mg/mL. For the same compound, the solubility at 24 h in series [1] (water, read-out: aqueous solubility in water) is about 0.3 mg/mL. The “plasma concentrations of compound 9” value is on record as “below LLOQ for the majority of the samples” in series [2]; “below LLOQ for the majority of the samples” in series [4] (rat, single oral doses 10-1000 mg/kg of compound 9, LLOQ 2.5 to 25 ng/mL); “below LLOQ for the majority of the samples” in series [5] (monkey, single PO doses 10-1000 mg/kg of compound 9, LLOQ 10.0 to 25.0 ng/mL). Besides, half-maximal inhibition in series [3] (IC50) was put at 0.33 µM. Also, the “in vivo conversion of prodrug into parent compound” value in series [4] (rats) and in series [5] (monkeys) was “converted in vivo into compound 9a” throughout.

As to `Cc1cc(F)ccc1Oc1cc(C(F)(F)F)ccc1C(=O)Nc1ccn(COP(=O)(O)O)c(=O)c1` [crystalline Form B, (4-(2-(4-fluoro-2-methylphenoxy)-4-(trifluoromethyl)benzamido)-2-oxopyridin-1(2H)-yl)methyl dihydrogen phosphate], the “chemical and physical stability” value in series [6] (5° C./dry, 40° C./dry, 25° C. with relative humidity of up to 60%, 40° C. with relative humidity of up to 75%) is “chemically and physically stable for at least one month”; in series [6] (open dish at 40° C., 40° C. with RH up to 75%, 25° C. with RH up to 60%, closed dish at 5° C. with a desiccator), “chemically and physically stable for at least three months”.

Broadly, the solubility is the dissolved amount per volume that the medium holds. The term IC50 denotes the point on the concentration scale where inhibition reaches its midpoint.
